Reference: EP0812835B1, “OPTICALLY ACTIVE THIAZOLIDINONE DERIVATIVES” (SANKYO COMPANY LIMITED, priority 1995, dated 1996)
Marks after values point to notes of the source that are not given here.

Key:
[1] = Stability of compounds (storage, residual ratio by high pressure liquid chromatography); type: physicochemical; settings: for storage stability: in words
Description: About 2 mg of the test compound was accurately weighed and placed in a brown bottle. The bottle was left to stand at a dark place at room temperature (24-26°C) for 4 weeks and a residual ratio (%) of the test compound was measured by high pressure liquid chromatography (column: Inertsil ODS-3, eluting solvent: 10 mM (pH=7.0) phosphoric acid buffer/acetonitrile=80/20).

Collateral Vessel [2] = test: Collateral vessel dilating action by administration into the portal vein (first-pass effect test); type: in vivo, Beagle dogs (male); settings: administered into the portal vein, compared with intravenous administration, 60 minutes
Description: Collateral Vessel Dilating Action by Administration into the Portal Vein
While test specimens were prepared according to the method of Test example 1, the animal was laparotomized along the abdominal median line, and a branch of the mesenteric vein was removed and incised so as to administer the test drug into the portal vein. A polyethylene cannula (Atom intravenous catheter 2F) was inserted antegrade into this vein to reside in the portal vein, and then the test drug was administered through it. In order to test the first-pass effect of the test drug, it was first administered intravenously (inguinal vein) to determine collateral vessel dilating action of the drug for 60 minutes. The same test drug was then administered into the portal vein 2 or 3 hours later to determine collateral vessel dilating action for 60 minutes, and those actions were compared with each other.

Collateral Vessel [3] = test: Collateral vessel dilating action by intravenous administration (Collateral Index, carotid artery occlusion); type: in vivo, Beagle dogs (male); settings: dose of 0.3 mg/kg, intravenous (inguinal vein), anesthetized dogs
Description: Collateral Vessel Dilating Action by Intravenous Administration
Beagle dogs (male) weighing 9 to 13 kg were anesthetized by intravenous injection of pentobarbital at a dose of 30 mg/kg and tested under artificial respiration. In order to measure the pressure of the left carotid artery, a polyethylene cannula (Atom intravenous catheter 2F) was inserted […] into one branch of the left thyroid artery. The left carotid artery upstream from this pressure measurement site was occluded for 1 minute with an arterial clamp, and the pressure immediately before occlusion (P) and the decrease in peripheral pressure (ΔP) were measured. Next, the test drug was administered through another polyethylene cannula inserted into the inguinal vein. The left carotid artery was occluded for 1 minute after 5, 15, 30, 45 and 60 minutes, and pressure immediately before occlusion (Pa) and the decrease in peripheral pressure (ΔPa) each time were measured. Collateral vessel dilating effect (Collateral Index = CI) of the test drug was determined according to the following formula: CI = 100 - (ΔPa/Pa) x 100/(ΔP/P) [formula]

aspirin-induced ulcer = test: Inhibition of aspirin-induced ulcer; type: in vivo, Donryu strain male rats; settings: for Inhibition rate (%): 1 hour before aspirin, area of ulceration vs control group
Description: Inhibition of aspirin-induced ulcer
As a test animal, 10 Donryu strain male rats each weighing 200 g-250 g were used in one group. The rats were fasted before the experiment for 24 hours but they could freely drink water. The test compounds were suspended in 0.5% carboxymethyl cellulose (CMC) solution. Meanwhile, for a control group, 0.5% CMC solution was used.
The test compound was orally administered (0.1 ml/100 g body weight) to the rats and an aspirin solution (150 mg/ml: suspended in 0.5% CMC solution) was orally administered (0.1 ml/100 g body weight) to the rats 1 hour later. Four hours after the administration of the aspirin solution, the rats were sacrificed using carbon dioxide gas and the stomach of each rat was taken out. Into the stomachs were poured 10 ml of 1% formalin solution to allow the stomachs to expand, and the stomachs were immersed in 1% formalin solution in a beaker for about 15-20 minutes. Then, each stomach was cut along the greater curvature thereof and an area of the ulceration in the gastric mucosa was measured by means of an image analysis apparatus [Luzex-F: manufactured by Nireko Co., Ltd.]. The average value of the area of the ulceration of each group was calculated from the area of the ulceration of each rat and the inhibition rate was obtained by comparing the average value of the test group with that of the control group.

C[C@@H](CO[N+](=O)[O-])NC(=O)[C@@H]1CSC(=O)N1 [Example 1, (4R)-N-[(1S)-1-Methyl-2-nitroxyethyl]-2-oxothiazolidin-4-vl-carboxamide]
Residual ratio (%) ([1]; dark place at room temperature (24-26°C) for 4 weeks, brown bottle): 101.2%
storage stability ([1]; as compared with the 1:1 mixture of Example 1 and the (4R),(1R)-isomer): excellent storage stability
storage stability ([1]; as compared with the (4R),(1R)-isomer): excellent storage stability
collateral vessel dilating action (Collateral Vessel [2]): excellent collateral vessel dilating action
CI(60) (Collateral Vessel [3]): > 10
Inhibition rate (%) (aspirin-induced ulcer; 30 mg/kg orally, p<0.05): 63.58*^) %
Inhibition rate (%) (aspirin-induced ulcer; 100 mg/kg orally, p<0.005): 80.15**^) %
Inhibition rate (%) (aspirin-induced ulcer; 300 mg/kg orally, p<0.005): 93.17**^) %
anti-ulcerative action (aspirin-induced ulcer; result in words, summary of Table 4): excellent anti-ulcerative action

CCC[C@@H](CO[N+](=O)[O-])NC(=O)[C@@H]1CSC(=O)N1 [Example 5, (4R)-N-[(1S)-1-Propyl-2-nitroxyethyl]-2-oxothiazolidin-4-yl-carboxamide]
CI(60) (Collateral Vessel [3]): > 10

CCCC[C@@H](CO[N+](=O)[O-])NC(=O)[C@@H]1CSC(=O)N1 [Example 6, (4R)-N-[(1S)-1-Butyl-2-nitroxyethyl]-2-oxothiazolidin-4-yl-carboxamide]
CI(60) (Collateral Vessel [3]): > 10

CC(C)C[C@@H](CO[N+](=O)[O-])NC(=O)[C@@H]1CSC(=O)N1 [Example 8, (4R)-N-[(1S)-1-Isobutyl-2-nitroxyethyl]-2-oxothiazolidin-4-yl-carboxamide]
CI(60) (Collateral Vessel [3]): > 10
